Measured values as given in patent publication US20050232912A1, “Enzyme phosphorylating ser46 of p53” (priority 2001, published 2005).

System: Human breast cancer cells MCF-7
Assay: Ser46-phosphorylating activity of nuclear extracts from doxorubicin-treated cells, Western blotting with anti-p53-phosphorylated-Ser46 antibodies
Format: cell-based
Conditions: MCF-7 cells, 3 μM doxorubicin, during 12 hours after treatment, substrate GST-p53
Method: Human breast cancer cells MCF-7 (hereinafter called “MCF-7”, ATCC) were cultured in DMEM medium (Sigma) containing 10% fetal bovine serum (GIBCO BRL) on 15 cm^2 dishes (Corning) up to 90% confluent state. These cells were treated with final 3 μM doxorubicin (Sigma, the same to adriamycin) by addition of its aqueous solution to the medium. After allowed to stand in an incubator, the cells were harvested at various time points.
The harvested cells from one dish were suspended and solubilized in 500 μl of cytoplasm extraction buffer (10 mM HEPES pH7.9, 2 mM MgCl2, 0.1 mM EDTA, 0.1 mM EGTA, 1% Nonidet NP-40, DTT 1 mM, Na3VO4 1 mM, NaF 5 mM, PMSF 0.5 mM, KCl 10 mM, leupeptin 5 μg/ml, antipain 5 μg/ml, chymostatin 5 μg/ml, pepstatinA 2 μg/ml). The solbilized cells were centrifuged at 15,000 rpm for 15 min. The pellets obtained were mixed with 100 μl nuclear extraction buffer (10 mM HEPES pH7.9, 2 mM MgCl2, 0.1 mM EDTA, 0.1 mM EGTA, 1% Nonidet NP-40, DTT 1 mM, Na3VO4 1 mM, NaF 5 mM, PMSF 0.5 mM, KCl 10 mM, NaCl 500 mM, leupeptin 5 μg/ml, antipain 5 μg/ml, chymostatin 5 μg/ml, pepstatinA 2 μg/ml), suspended well and centrifuged at 15,000 rpm for 15 min. […]
Next, the enzyme activity of the nuclear extracts was assayed using the antibodies. […] The phosphorylation of GST-p53 was detected in Western blotting probed with anti-p53-phosphorylated-Ser46 antibodies.

COc1cccc2c1C(=O)c1c(O)c3c(c(O)c1C2=O)C[C@@](O)(C(=O)CO)C[C@@H]3O[C@H]1C[C@H](N)[C@H](O)[C@H](C)O1 [doxorubicin]
activation of enzyme phosphorylating Ser46 of p53: greatly induced
